Values after ≈ are worked out from the molar mass of the structure shown.
How the values were obtained:
Type in all cases: functional
[1] = tested on: Bacillus subtilis; assay: Antibacterial activity against Bacillus subtilis assessed as inhibition of bacterial growth
[2] = Antioxidant activity assessed as trolox equivalent of DPPH radical scavenging activity by DPPH assay relative to trolox
[3] = Antioxidant activity assessed as DPPH radical scavenging activity by DPPH assay
[4] = tested on: Bacillus subtilis; assay: Bactericidal activity against Bacillus subtilis assessed as decrease in cell survival
[5] = tested on: Escherichia coli; assay: Antibacterial activity against Escherichia coli assessed as inhibition of bacterial growth
[6] = tested on: Escherichia coli; assay: Bactericidal activity against Escherichia coli assessed as decrease in cell survival

Row | MIC [1] | IC50 [3] | MIC [5] | Compound | Ratio IC50 [2] | MBC [4] | MBC [6]
1 | 256 µg/mL (≈ 933 µM) | 112 µM | 128 µg/mL (≈ 467 µM) | Oc1ccc([C@H]2COc3cc(O)c(O)cc3C2)cc1O | 2.28 | 256 µg/mL (≈ 933 µM) | > 1020 µg/mL
2 | – | 249 µM | – | Cc1c(C)c2c(c(C)c1O)CCC(C)(C(=O)O)O2 (configuration not stated) [TROLOX] | – | – | –
3 | 256 µg/mL (≈ 991 µM) | 250 µM | 512 µg/mL (≈ 1980 µM) | Oc1ccc2c(c1)OC[C@H](c1ccc(O)c(O)c1)C2 | 1.02 | 512 µg/mL (≈ 1980 µM) | 512 µg/mL (≈ 1980 µM)
4 | > 1020 µg/mL | – | > 1020 µg/mL | O=c1c(-c2ccc(O)cc2)coc2cc(O)ccc12 [DAIDZEIN] | – | – | –
5 | 128 µg/mL (≈ 496 µM) | 233 µM | 64 µg/mL (≈ 248 µM) | Oc1ccc([C@H]2COc3cc(O)c(O)cc3C2)cc1 | 1.08 | 128 µg/mL (≈ 496 µM) | 64 µg/mL (≈ 248 µM)
6 | 64 µg/mL (≈ 264 µM) | 52000 µM | 256 µg/mL (≈ 1060 µM) | Oc1ccc([C@H]2COc3cc(O)ccc3C2)cc1 [AUS-131] | 4.99 10^-3No_unit | 256 µg/mL (≈ 1060 µM) | > 1020 µg/mL

Source: ChEMBL document CHEMBL5104147, “Biocatalytic synthesis and evaluation of antioxidant and antibacterial activities of hydroxyequols” (Bioorg Med Chem Lett, 2022)
